Several values for one entry are separate records, joined by “and”; a condition that tells them apart may be missing. Equal entries are not always repeated.
Columns and labels:
HepG2 cells [1] = experiment: Intracellular reactive oxygen species levels (DCF-DA); assay type: cell-based, human; conditions: HepG2, 1 or 3 h
Procedure: The production levels of ROS were measured according to a previously described method[39] using DCF-DA (Sigma-Aldrich). […] Then, the cells were collected, washed with saline and resuspended in FACS tubes with saline containing 5 μM DCF-DA for 30 min. […] A protection assay using the antioxidant NAC (Sigma-Aldrich) was also performed. […] The cells were then trypsinized, and the TBE assay was performed.

HL-60 = assay type: cell-based, human; conditions: HL-60 (human promyelocytic leukemia), 72 h
HepG2 cells [2] = experiment: Gene expression analysis by qPCR array (TaqMan Array Human Molecular Mechanisms of Cancer); assay type: cell-based; conditions: HepG2, 12 h; RCX 12 µM, DOX 2 µM
Procedure: HepG2 cells were plated in bottles for cell culture (7 × 10^4 cells/mL). […] The RNA was evaluated by fluorimetry using QuBit (Life Technologies; Camarillo, CA, USA). RNA reverse transcription was performed using a Superscript VILO™ Kit (Invitrogen Corporation; Waltham, MA, USA). A 96-well plate TaqMan® Array Human Molecular Mechanisms of Cancer (ID 4418806, Applied Biosystems^TM, Foster City, CA, USA) was used for the gene expression study by qPCR. The reactions were conducted in an ABI ViiA7 system (Applied Biosystems^TM; Foster City, CA, USA). The cycle conditions comprised 2 min at 50 °C, 20 s at 95 °C, then 40 cycles of 3 s at 95 °C and 30 s at 60 °C. The relative quantification (RQ) of mRNA expression was calculated by the 2^-ΔΔCT method[40] using Gene Expression Suite™ Software (Applied Biosystems^TM), and the cells treated with the negative control (0.2% DMSO) were used as a calibrator. The reactions were normalized by the geometric mean of the RQ of the reference genes GAPDH, 18S and HPRT1. All experiments were performed in DNase/RNase-free conditions.

calf thymus DNA = experiment: DNA intercalation assay (ethidium bromide displacement); assay type: binding; conditions: 20 μM, cell-free, 15 min
Procedure: DNA intercalation was assessed by examining the ability of the complex to displace ethidium bromide from ctDNA (Sigma-Aldrich)[36]. […] After a 15 min of incubation at room temperature, fluorescence was measured using the excitation and emission wavelengths of 320 nm and 600 nm, respectively, using the Spectramax Microplate Reader (Molecular Devices).

K-562 = assay type: cell-based, human; conditions: K-562 (human chronic myelogenous leukemia), 72 h
JNK/SAPK (pT183/pY185) = experiment: Phosflow analysis; assay type: cell-based, human; conditions: HepG2, 12 µM RCX, 15 min, 30 min, 24 h
Procedure: Phosphorylated ERK 1/2, JNK/SAPK and p38 MAPK were analyzed by flow cytometry. In brief, cells were collected and resuspended in 0.5–1 mL of 4% formaldehyde and fixed for 10 min at 37 °C. Then, the tubes were chilled on ice for 1 min. The cells were permeabilized by slowly adding ice-cold 100% methanol to prechilled cells while gently vortexing to a final concentration of 90% methanol and were incubated for 30 min on ice. After washing with incubation buffer (0.5% bovine serum albumin in PBS), PE mouse anti-ERK1/2 (pT202/pY204), PE mouse anti-JNK/SAPK (pT183/pY185), PE mouse anti-p38 MAPK (pT180/pY182) or PE mouse IgG1, κ isotype control antibodies, all from BD Biosciences, were added and incubated for 1 h at room temperature.

COc1cc([O-])c(C(C)=O)c(OC)c1.F[P-](F)(F)(F)(F)F.[Ru+2].c1cnc2c(c1)ccc1cccnc12.c1cnc2c(c1)ccc1cccnc12 [RCX, cis-[Ru(phen)2(xant)](PF6)]
ROS levels (HepG2 cells [1]): did not induce a significant increase in ROS levels | IC50 (HL-60): 6.6 µM | RQ ABL1 gene expression (HepG2 cells [2]): 1.908 | RQ AKT1 gene expression (HepG2 cells [2]): 1.685 | RQ AKT2 gene expression (HepG2 cells [2]): 2.7 and 2.697 | RQ APC gene expression (HepG2 cells [2]): 1.106 | RQ BAX gene expression (HepG2 cells [2]): 0.887 | RQ BCAR1 gene expression (HepG2 cells [2]): 2.9 and 2.846 | RQ BCL2L1 gene expression (HepG2 cells [2]): 0.898 | RQ BCL2L11 gene expression (HepG2 cells [2]): 9.8 and 9.786 | RQ BCL2 gene expression (HepG2 cells [2]): 2.4 and 2.377 | RQ BID gene expression (HepG2 cells [2]): 1.477 | RQ BRAF gene expression (HepG2 cells [2]): 2.3 and 2.296 | RQ CASP8 gene expression (HepG2 cells [2]): 1.493 | RQ CCND1 gene expression (HepG2 cells [2]): 4.8 and 4.752 | RQ CCND3 gene expression (HepG2 cells [2]): 2.4 and 2.397 | RQ CCNE1 gene expression (HepG2 cells [2]): 0.674 | RQ CDC42 gene expression (HepG2 cells [2]): 4.2 and 4.147 | RQ CDH1 gene expression (HepG2 cells [2]): 1.051 | RQ CDK2 gene expression (HepG2 cells [2]): 1.251 | RQ CDK4 gene expression (HepG2 cells [2]): 2.7 and 2.737 | RQ CDKN1A gene expression (HepG2 cells [2]): 0.628 | RQ CDKN1B gene expression (HepG2 cells [2]): 0.5 and 0.543 | RQ CDKN2A gene expression (HepG2 cells [2]): 3.8 and 3.836 | RQ CRK gene expression (HepG2 cells [2]): 6.2 and 6.172 | RQ CTNNB1 gene expression (HepG2 cells [2]): 1.930 | RQ CYCS gene expression (HepG2 cells [2]): 1.927 | RQ DVL1 gene expression (HepG2 cells [2]): 2.7 and 2.712 | RQ E2F1 gene expression (HepG2 cells [2]): 7.1 and 7.081 | RQ EGFR gene expression (HepG2 cells [2]): 2.0 and 1.985 | RQ ELK1 gene expression (HepG2 cells [2]): 5.2 and 5.179 | RQ ERBB2 gene expression (HepG2 cells [2]): 2.2 and 2.186 | RQ FADD gene expression (HepG2 cells [2]): 1.854 | RQ FAS gene expression (HepG2 cells [2]): 2.9 and 2.845 | RQ FGF2 gene expression (HepG2 cells [2]): 5.5 and 5.503 | RQ FOS gene expression (HepG2 cells [2]): 1.472 | RQ FYN gene expression (HepG2 cells [2]): 2.2 and 2.240 | RQ FZD1 gene expression (HepG2 cells [2]): 4.8 and 4.807 | RQ GRB2 gene expression (HepG2 cells [2]): 0.855 | RQ GSK3B gene expression (HepG2 cells [2]): 0.999 | RQ HRAS gene expression (HepG2 cells [2]): 2.1 and 2.071 | RQ IGF1R gene expression (HepG2 cells [2]): 1.052 | RQ ITGA2B gene expression (HepG2 cells [2]): 5.4 and 5.437 | RQ ITGAV gene expression (HepG2 cells [2]): 1.126 | RQ ITGB1 gene expression (HepG2 cells [2]): 1.547 | RQ ITGB3 gene expression (HepG2 cells [2]): 1.478 | RQ JUN gene expression (HepG2 cells [2]): 4.5 and 4.475 | RQ KRAS gene expression (HepG2 cells [2]): 4.8 and 4.786 | RQ MAP2K1 gene expression (HepG2 cells [2]): 2.6 and 2.591 | RQ MAP3K5 gene expression (HepG2 cells [2]): 1.752 | RQ MAPK1 gene expression (HepG2 cells [2]): 2.1 and 2.124 | RQ MAPK3 gene expression (HepG2 cells [2]): 1.762 | RQ MAPK8 gene expression (HepG2 cells [2]): 1.293 | RQ MAPK14 gene expression (HepG2 cells [2]): 3.0 and 3.025 | RQ MDM2 gene expression (HepG2 cells [2]): 3.2 and 3.153 | RQ MYC gene expression (HepG2 cells [2]): 4.3 and 4.304 | RQ NFKB1 gene expression (HepG2 cells [2]): 2.2 and 2.156 | RQ NFKB2 gene expression (HepG2 cells [2]): 3.6 and 3.621 | RQ NFKBIA gene expression (HepG2 cells [2]): 1.342 | RQ NRAS gene expression (HepG2 cells [2]): 1.862 | RQ PIK3CA gene expression (HepG2 cells [2]): 1.265 | RQ PIK3R1 gene expression (HepG2 cells [2]): 1.408 | RQ PTEN gene expression (HepG2 cells [2]): 0.644 | RQ PTK2B gene expression (HepG2 cells [2]): 0.803 | RQ PTK2 gene expression (HepG2 cells [2]): 2.0 and 2.034 | RQ RAC1 gene expression (HepG2 cells [2]): 1.199 | RQ RAF1 gene expression (HepG2 cells [2]): 4.7 and 4.645 | RQ RB1 gene expression (HepG2 cells [2]): 0.795 | RQ RELA gene expression (HepG2 cells [2]): 2.4 and 2.403 | RQ RHOA gene expression (HepG2 cells [2]): 1.541 | RQ SHC1 gene expression (HepG2 cells [2]): 3.7 and 3.702 | RQ SMAD4 gene expression (HepG2 cells [2]): 3.6 and 3.549 | RQ SOS1 gene expression (HepG2 cells [2]): 5.0 and 4.992 | RQ SRC gene expression (HepG2 cells [2]): 1.833 | RQ TCF3 gene expression (HepG2 cells [2]): 3.2 and 3.166 | RQ TGFB1 gene expression (HepG2 cells [2]): 1.267 | RQ TGFBR1 gene expression (HepG2 cells [2]): 1.352 | RQ TGFBR2 gene expression (HepG2 cells [2]): 1.069 | RQ TP53 gene expression (HepG2 cells [2]): 0.5 and 0.471 | RQ VEGFA gene expression (HepG2 cells [2]): 3.8 and 3.759 | displacement of ethidium bromide from ctDNA (fluorescence) (calf thymus DNA): decreased the ethidium bromide fluorescence | IC50 (K-562): 6.1 µM | phosphorylation of JNK/SAPK (JNK/SAPK (pT183/pY185)): the phosphorylation of JNK/SAPK after a 15-min incubation
